ChEMBL document CHEMBL1201862, “PubChem BioAssay data set” (2004)
Calls of active or inactive are those of the source.

How the values were obtained:
cells [1] = format: functional, cell-based
cells [2] = format: functional, cell-based; remark: listed apart in the source
Aminopeptidase N = target: T1, Aminopeptidase N (Plasmodium falciparum FcB1/Columbia, UniProt O96935); test: malaria alanyl aminopeptidase activity blockers – biochemical, fluorogenic H-Leu-NHMec substrate, 1536-well (AID 1445); parameters: species or system Plasmodium falciparum 3D7, 3D7
T1 sequence (O96935 whole entry): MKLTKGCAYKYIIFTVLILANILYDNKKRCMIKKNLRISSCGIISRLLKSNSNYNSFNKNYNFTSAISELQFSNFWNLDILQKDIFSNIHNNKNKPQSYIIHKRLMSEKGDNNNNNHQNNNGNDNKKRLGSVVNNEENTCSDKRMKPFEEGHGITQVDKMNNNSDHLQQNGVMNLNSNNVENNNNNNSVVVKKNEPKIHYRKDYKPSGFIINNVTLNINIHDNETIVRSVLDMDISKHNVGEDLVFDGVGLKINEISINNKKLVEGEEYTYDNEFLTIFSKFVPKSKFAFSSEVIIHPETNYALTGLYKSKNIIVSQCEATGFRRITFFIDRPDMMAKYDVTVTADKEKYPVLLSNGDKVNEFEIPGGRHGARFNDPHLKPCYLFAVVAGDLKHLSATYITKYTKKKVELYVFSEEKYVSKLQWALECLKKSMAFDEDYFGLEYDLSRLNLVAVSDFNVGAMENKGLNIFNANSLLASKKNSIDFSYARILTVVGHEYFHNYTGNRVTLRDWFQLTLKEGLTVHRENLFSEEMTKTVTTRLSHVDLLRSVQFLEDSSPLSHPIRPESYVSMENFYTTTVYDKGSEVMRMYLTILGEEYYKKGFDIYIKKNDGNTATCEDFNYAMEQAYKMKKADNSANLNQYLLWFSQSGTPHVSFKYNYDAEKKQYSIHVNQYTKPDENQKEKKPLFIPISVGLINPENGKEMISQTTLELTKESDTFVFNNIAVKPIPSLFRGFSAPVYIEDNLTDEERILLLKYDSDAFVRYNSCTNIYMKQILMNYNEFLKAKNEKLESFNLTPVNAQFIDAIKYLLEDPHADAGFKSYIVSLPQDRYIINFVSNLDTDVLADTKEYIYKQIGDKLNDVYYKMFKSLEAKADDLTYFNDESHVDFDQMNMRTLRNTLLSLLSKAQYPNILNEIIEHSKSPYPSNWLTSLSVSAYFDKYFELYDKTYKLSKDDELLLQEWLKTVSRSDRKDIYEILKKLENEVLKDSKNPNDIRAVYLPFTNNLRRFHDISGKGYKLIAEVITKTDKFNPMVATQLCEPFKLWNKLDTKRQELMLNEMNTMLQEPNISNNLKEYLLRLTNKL

Paired box protein Pax-8 = Paired box protein Pax-8 (Homo sapiens, UniProt Q06710); test: PAX8 transcriptional activity inhibition in RMG-I – RMG-I cells, luciferase, cherry-pick, dose response (AID 687027); format: functional, cell-based;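 note: luciferase reporter driven by Pax8 target thyroperoxidase promoter measured by SteadyGlo luminescence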
Chain of Paired box protein Pax-8 (Q06710 whole entry): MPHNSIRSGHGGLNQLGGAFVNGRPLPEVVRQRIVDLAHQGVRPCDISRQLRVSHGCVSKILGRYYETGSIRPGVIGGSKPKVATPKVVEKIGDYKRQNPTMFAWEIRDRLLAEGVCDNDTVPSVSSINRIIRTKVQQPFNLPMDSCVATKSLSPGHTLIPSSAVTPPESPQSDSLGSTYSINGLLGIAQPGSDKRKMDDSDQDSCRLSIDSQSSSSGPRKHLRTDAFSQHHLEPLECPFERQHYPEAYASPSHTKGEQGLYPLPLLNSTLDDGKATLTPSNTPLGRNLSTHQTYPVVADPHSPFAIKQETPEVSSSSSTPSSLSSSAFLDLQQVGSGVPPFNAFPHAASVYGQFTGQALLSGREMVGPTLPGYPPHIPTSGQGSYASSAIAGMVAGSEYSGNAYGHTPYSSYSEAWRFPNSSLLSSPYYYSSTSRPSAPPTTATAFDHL

[3] = OVCAR8 cell viability loss – plate reader, dry powder samples, PAX8 project, dose response (AID 743197); format: functional, cell-based; conditions: OVCAR-8
[4] = microbe, parasite or virus in culture; format: functional; conditions: Mycobacterium tuberculosis
[5] = target: Voltage-dependent T-type calcium channel subunit alpha-1H (Homo sapiens, UniProt O95180); format: functional;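 note: channel activity triggered by adding a high calcium stimulation buffer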
Chain of Voltage-dependent T-type calcium channel subunit alpha-1H (O95180 whole entry): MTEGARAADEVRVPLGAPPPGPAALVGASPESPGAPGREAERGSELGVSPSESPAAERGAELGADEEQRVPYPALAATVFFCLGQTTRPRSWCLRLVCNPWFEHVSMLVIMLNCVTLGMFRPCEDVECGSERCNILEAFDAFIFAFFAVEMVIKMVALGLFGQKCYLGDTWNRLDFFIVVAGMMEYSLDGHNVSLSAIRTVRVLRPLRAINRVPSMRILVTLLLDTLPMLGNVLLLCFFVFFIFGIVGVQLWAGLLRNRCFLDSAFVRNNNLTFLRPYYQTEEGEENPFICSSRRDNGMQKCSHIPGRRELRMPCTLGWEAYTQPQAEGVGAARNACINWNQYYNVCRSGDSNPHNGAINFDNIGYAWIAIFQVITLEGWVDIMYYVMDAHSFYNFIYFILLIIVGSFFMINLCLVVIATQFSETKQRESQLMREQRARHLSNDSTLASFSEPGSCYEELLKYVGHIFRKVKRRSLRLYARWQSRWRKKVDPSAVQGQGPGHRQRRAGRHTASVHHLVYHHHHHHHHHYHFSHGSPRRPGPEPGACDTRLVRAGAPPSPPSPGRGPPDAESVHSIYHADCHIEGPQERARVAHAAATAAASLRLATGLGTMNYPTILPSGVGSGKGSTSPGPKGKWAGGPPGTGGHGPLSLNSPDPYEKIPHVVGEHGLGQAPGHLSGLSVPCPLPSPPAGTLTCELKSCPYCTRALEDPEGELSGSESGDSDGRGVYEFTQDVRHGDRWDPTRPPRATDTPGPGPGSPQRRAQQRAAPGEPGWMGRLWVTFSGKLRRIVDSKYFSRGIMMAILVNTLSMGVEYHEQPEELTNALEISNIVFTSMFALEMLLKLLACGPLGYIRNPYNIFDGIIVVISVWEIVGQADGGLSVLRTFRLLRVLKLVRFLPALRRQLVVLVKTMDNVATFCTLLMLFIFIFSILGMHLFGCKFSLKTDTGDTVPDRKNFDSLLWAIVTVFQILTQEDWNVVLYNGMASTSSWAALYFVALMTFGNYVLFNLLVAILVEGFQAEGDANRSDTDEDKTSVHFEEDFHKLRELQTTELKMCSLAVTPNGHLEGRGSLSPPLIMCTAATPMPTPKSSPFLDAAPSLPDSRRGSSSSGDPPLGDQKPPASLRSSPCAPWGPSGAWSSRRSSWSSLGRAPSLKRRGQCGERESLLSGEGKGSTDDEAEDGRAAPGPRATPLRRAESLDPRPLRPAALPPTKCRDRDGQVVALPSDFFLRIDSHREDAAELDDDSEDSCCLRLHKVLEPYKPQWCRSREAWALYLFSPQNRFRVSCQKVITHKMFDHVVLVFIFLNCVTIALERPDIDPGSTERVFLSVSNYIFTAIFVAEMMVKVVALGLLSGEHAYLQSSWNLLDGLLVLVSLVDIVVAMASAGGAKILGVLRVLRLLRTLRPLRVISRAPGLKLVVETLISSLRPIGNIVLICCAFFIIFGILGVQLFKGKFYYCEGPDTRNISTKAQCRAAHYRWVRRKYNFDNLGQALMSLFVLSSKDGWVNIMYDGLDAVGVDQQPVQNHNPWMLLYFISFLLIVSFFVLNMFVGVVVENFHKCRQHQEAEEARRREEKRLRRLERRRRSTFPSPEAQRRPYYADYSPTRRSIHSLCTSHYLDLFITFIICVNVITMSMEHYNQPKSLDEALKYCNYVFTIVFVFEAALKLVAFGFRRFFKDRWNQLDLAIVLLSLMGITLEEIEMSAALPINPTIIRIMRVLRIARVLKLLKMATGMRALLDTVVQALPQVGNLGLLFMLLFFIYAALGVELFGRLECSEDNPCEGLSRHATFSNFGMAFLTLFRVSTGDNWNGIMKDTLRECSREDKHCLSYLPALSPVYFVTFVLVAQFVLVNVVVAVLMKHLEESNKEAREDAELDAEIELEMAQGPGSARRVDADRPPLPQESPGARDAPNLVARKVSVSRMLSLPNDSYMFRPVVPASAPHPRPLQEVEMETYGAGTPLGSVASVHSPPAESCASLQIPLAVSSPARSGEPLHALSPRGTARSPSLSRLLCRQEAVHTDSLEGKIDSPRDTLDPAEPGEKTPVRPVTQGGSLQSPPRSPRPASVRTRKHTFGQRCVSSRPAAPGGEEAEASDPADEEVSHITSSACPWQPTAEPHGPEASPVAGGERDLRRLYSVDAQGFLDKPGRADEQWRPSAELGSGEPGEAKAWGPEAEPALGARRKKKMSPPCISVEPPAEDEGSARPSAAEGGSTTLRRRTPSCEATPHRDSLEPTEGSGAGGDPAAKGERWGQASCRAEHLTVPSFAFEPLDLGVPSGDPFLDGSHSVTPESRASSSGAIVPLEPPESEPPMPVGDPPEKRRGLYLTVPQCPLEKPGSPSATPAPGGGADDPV

[6] = Trypanosoma cruzi growth suppression in host cells – NIH3T3 host cells, beta-gal luminescence, confirmation (AID 2044); format: functional, cell-based;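 note: intracellular parasites grown in NIH/3T3 mouse fibroblasts as host cells; luminescent beta-galactosidase reporter signal from transgenic T. cruzi replicating inside host cells; inhibitors lower the luminescence signal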
[7] = NIH3T3 cell viability loss – ATP luminescence, mouse fibroblasts, counter-screen, dose response (AID 2010); format: functional, cell-based;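 note: cells exposed to compound for about 90 hours before reading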
[8] = viability of PTEN-deleted HCT116 cells – cell-based, HCT116 PTEN knockout, dose response (AID 1047); format: functional;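 note: HCT116 colon tumor cells with PTEN knocked out; cells exposed to compound for 60 hours before readout; potency for loss of cell viability measured by luminescence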
[9] = viability of HCT116 lacking mutant beta-catenin – cell-based, human colon tumor, dose response (AID 1045); format: functional;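 note: HCT116 colon tumor cells with beta catenin knocked out; cells exposed to compound for 60 hours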
INS1 = test: INS-1E survival protection against cytokine death – cell-based, luminescence, retest, dose response (AID 449756); format: functional; conditions: Rattus norvegicus;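 note: cell death triggered by IL-1 beta plus TNF-alpha plus IFN-gamma mixture; protective hits raise ATP signal compared with cytokine alone wells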
[10] = target: FAD-linked sulfhydryl oxidase ALR (Homo sapiens, UniProt P55789); test: ALR-catalysed DTT oxidation blockers – biochemical, H2O2 detection, luminescence, cherry-pick, dose response (AID 493248)
Chain of FAD-linked sulfhydryl oxidase ALR (P55789 whole entry): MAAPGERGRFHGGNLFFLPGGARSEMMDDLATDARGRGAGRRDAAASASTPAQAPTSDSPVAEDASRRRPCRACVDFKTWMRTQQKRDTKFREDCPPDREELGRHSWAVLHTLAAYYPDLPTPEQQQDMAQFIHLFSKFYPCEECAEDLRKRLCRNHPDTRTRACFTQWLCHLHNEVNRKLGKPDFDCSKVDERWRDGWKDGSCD

[11] = P. falciparum Dd2 growth inhibitors, dose response, SYBR Green, cherry-picked samples (AID 1159567); format: functional, cell-based
[12] = OVCAR-3 cell viability loss – plate reader, dry powder samples, PAX8 inhibitor project, dose response (AID 743044); format: functional, cell-based
[13] = luciferase reporter signal suppression in cells – H4 neuroglioma cells, luminescence, dose response (AID 1990); format: functional, cell-based
[14] = Luminescence Cell-Based Dose Response HTS to Identify Inhibitors of 5'UTR Stem-Loop Driven Prion Protein mRNA Translation in H4 Neuroglioblastoma Cells. [Related pubchem assays: 1827 (Project Summary), 1813 (Primary HTS)]; format: functional
[15] = alpha-synuclein stem-loop luciferase translation blockers – H4 neuroglioma cells, luminescence, confirmation (AID 1988); format: functional, cell-based
Protein skinhead-1 = target: T2, Protein skinhead-1 (Caenorhabditis elegans, UniProt P34707); format: functional
T2 sequence (P34707 whole entry): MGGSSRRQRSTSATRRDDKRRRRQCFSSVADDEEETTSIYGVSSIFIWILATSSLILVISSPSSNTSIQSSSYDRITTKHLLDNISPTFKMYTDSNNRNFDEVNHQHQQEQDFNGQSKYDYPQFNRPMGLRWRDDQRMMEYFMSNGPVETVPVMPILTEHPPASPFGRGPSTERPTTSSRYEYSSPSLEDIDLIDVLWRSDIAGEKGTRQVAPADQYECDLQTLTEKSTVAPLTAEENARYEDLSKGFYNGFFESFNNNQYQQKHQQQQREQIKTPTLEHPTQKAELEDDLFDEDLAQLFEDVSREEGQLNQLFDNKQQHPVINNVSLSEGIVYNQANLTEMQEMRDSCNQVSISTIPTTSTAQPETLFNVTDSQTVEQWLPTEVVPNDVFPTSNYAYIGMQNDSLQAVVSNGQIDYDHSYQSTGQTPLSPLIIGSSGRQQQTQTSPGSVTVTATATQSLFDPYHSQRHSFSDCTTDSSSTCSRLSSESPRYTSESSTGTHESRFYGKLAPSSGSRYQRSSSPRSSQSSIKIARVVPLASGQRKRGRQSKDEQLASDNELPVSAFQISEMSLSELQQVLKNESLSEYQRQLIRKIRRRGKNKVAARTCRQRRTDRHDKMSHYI

[16] = blockers of bursicon-stimulated LGR2 cAMP reporter – cell-based, HEK293, CRE-luciferase reporter, cherry pick, set 2, dose response (AID 743343); format: functional;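 note: transfected cells were stimulated with diluted bursicon conditioned medium after compound addition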
[17] = blockade of melanocortin 4 receptor signaling – cell-based, plate reader, cherry pick, counter-screen for LGR2 antagonist project, dose response (AID 743444); format: functional;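 note: transfected HEK 293 cells stimulated with alpha-MSH peptide; potency of inhibitors of the alpha-MSH evoked signal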

## O=C(c1ccc(Cl)cc1Cl)N1CCN(c2ccc(N3CCOCC3)nn2)CC1
Cells [1]
  EC50: > 350 µM (not active)
Cells [2]
  EC50: > 350 µM (not active)

## O=C(NC(=S)Nc1cccc([N+](=O)[O-])c1)c1ccco1
Cells [1]
  EC50: > 350 µM (not active)
Cells [2]
  EC50: > 350 µM (not active)

## Cc1ccc(S(=O)(=O)NC2=NC(=O)/C(=C\c3ccco3)S2)cc1
Aminopeptidase N
  IC50: 94 µM (active)

## O=C(O)c1ccccc1-c1nc(-c2ccccc2)c(-c2ccccc2)[nH]1
Aminopeptidase N
  IC50: 46.6 µM (active)

## CN(CC(=O)Nc1ccc(F)c(F)c1F)C(=O)/C=C/c1ccc(Cl)cc1
Cells [1]
  EC50: > 350 µM (not active)
Cells [2]
  EC50: 155 µM (active)

## C[C@@H]1CCCCO[C@@H](CN(C)Cc2ccc(Cl)c(Cl)c2)[C@H](C)CN([C@H](C)CO)C(=O)c2cc(NS(=O)(=O)c3ccc(F)cc3)ccc2O1
Paired box protein Pax-8
  AC50: 8.2 µM (active)
[3]
  AC50: > 70 µM (inactive)

## O=C(/C=C/c1cccnc1)c1cccc(O)c1
[4]
  CC50: 15.6 µM (active)

## CCn1c(COc2cccc(C)c2)nc2ccccc21
[5]
  EC50: 13 µM (active)

## O=S(=O)(Nc1nc2ccccc2nc1Nc1ccc2c(c1)OCCO2)c1cccs1
[5]
  EC50: 9.65 µM (active)

## COc1ccc(C(=O)NCCCOC(=O)c2ccc(OC)cc2)cc1
Cells [1]
  EC50: > 350 µM (not active)
Cells [2]
  EC50: > 350 µM (not active)

## O=C(CSc1nc(O)c2c(C(F)(F)F)cc(-c3cccs3)nc2n1)NCc1ccco1
Aminopeptidase N
  IC50: 103 µM (active)

## CCCCc1cc(=O)oc2c(CN(CC)CC)c(O)c(Cl)cc12
Aminopeptidase N
  IC50: 41.5 µM (active)

## Cc1nn(Cc2ccc(Cl)cc2Cl)c(C)c1NC(=O)c1ccc(COc2cc(Cl)ccc2Cl)o1
[6]
  EC50: 1.5 µM (active)
[7]
  EC50: > 60 µM (not active)
[5]
  EC50: 17.5 µM (active)

## COc1ccc(/C=N/Nc2ncnc3sc4c(c23)CCCC4)cc1OC
Cells [1]
  EC50: > 350 µM (not active)
Cells [2]
  EC50: > 350 µM (not active)

## CCN1CCN(c2ncnc3ccc(Br)cc23)CC1
Cells [1]
  EC50: > 350 µM (not active)
Cells [2]
  EC50: > 350 µM (not active)

## Cc1ccc(-c2nc(C[S+]([O-])CC(=O)NCc3ccc(Cl)cc3)c(C)o2)cc1 (stereo not drawn)
[5]
  EC50: 2 µM (active)

## Cc1ccc(C)c(CS(=O)(=O)c2cn(CC(=O)N3CCCCC3)c3ccccc23)c1
Aminopeptidase N
  IC50: 94.5 µM (active)

## Cc1nc(Nc2ccc(Cl)c(Cl)c2)sc1C(=O)Nc1ccccc1
[4]
  CC50: 27.2 µM (active)
[8]
  EC50: 19.8 µM (active)
[9]
  EC50: 21.9 µM (active)
INS1
  AC50: 7.01 µM (active)

## CCCOc1ccc(C(=O)c2nc3c(n2O)CCCCC3)cc1
[4]
  CC50: > 40 µM (active)

## O=C(O)c1ccc(S(=O)(=O)Nc2ccc(O)c(Sc3nc4ccccc4s3)c2)cc1
Aminopeptidase N
  IC50: 104 µM (active)
[10]
  AC50: 0.236 µM (active)

## O=C(NC1CCN(Cc2ccccc2)CC1)c1cccc(S(=O)(=O)Nc2ccc(SC(F)F)cc2)c1
[4]
  CC50: 32.7 µM (active)

## CNNC(=O)C(C)NC(=O)c1ccc(Br)cc1 (stereo not drawn)
Cells [1]
  EC50: > 350 µM (not active)
Cells [2]
  EC50: > 350 µM (not active)

## CC(=O)N1CCN(c2ccc(Oc3ccc([N+](=O)[O-])c(C(F)(F)F)c3)cc2)CC1
[4]
  CC50: > 40 µM (active)
INS1
  AC50: 5.74 µM (active)

## COc1ccc(C#Cc2ccc3c(c2)[C@@H]2[C@@H](CCN2C(=O)C2CCCC2)[C@H](CO)N3)cc1
[11]
  AC50: 3.97 µM (active)

## CCOC(=O)CCCc1ccc(/C(C)=N/NC(N)=S)cc1
[4]
  CC50: > 40 µM (active)

## C[C@@H]1CN([C@H](C)CO)C(=O)c2cc(NC(=O)Nc3ccccc3)ccc2O[C@@H](C)CCCCO[C@H]1CN(C)C(=O)Nc1ccc(C(F)(F)F)cc1
Paired box protein Pax-8
  AC50: 10.8 µM (active)
[12]
  AC50: 46.2 µM (active)
[3]
  AC50: > 70 µM (inactive)

## C[C@@H]1CN([C@H](C)CO)C(=O)c2c(c3ccccc3n2C)-c2ccccc2CO[C@H]1CN(C)S(=O)(=O)c1ccsc1
[11]
  AC50: 4.22 µM (active)

## COc1cccc(C#Cc2ccc([C@@H]3[C@@H](C#N)N(C(=O)c4ccccn4)[C@H]3CO)cc2)c1
[11]
  AC50: 3.29 µM (active)

## C[C@@H]1CN([C@H](C)CO)C(=O)c2cc(NC(=O)Nc3ccccc3)ccc2O[C@@H](C)CCCCO[C@@H]1CN(C)CC1CCCCC1
Paired box protein Pax-8
  AC50: 5.42 µM (active)
[12]
  AC50: 34.3 µM (active)
[3]
  AC50: 53.5 µM (active)

## CC(=O)Nc1ccc(S(=O)(=O)Oc2cccc(/C=N/NC3=NC(=O)C(CC(=O)O)S3)c2)cc1 (stereo not drawn)
Aminopeptidase N
  IC50: 52.8 µM (active)

## C[C@H](CO)N1C[C@H](C)[C@H](CN(C)S(=O)(=O)c2ccc(F)cc2)OCCCC[C@H](C)Oc2ccc(NC(=O)Nc3ccc(F)cc3)cc2C1=O
Paired box protein Pax-8
  AC50: 7.09 µM (active)
[3]
  AC50: > 70 µM (inactive)

## Cc1nc(NCCc2ccccc2)c2oc3ccccc3c2n1
[4]
  CC50: 31.6 µM (active)

## CC(=O)c1cccc(N(C(=O)c2ccccn2)C(C(=O)NC2CCCCC2)c2ccccc2)c1 (stereo not drawn)
Cells [1]
  EC50: > 350 µM (not active)
Cells [2]
  EC50: > 350 µM (not active)

## Cc1nc(CS(=O)(=O)c2ccc(Cl)cc2)cc(Sc2ccccc2Cl)n1
[5]
  EC50: 4.3 µM (active)

## COc1ccc(-c2cn3nc(SCC(=O)NCC4CCCO4)ccc3n2)cc1 (stereo not drawn)
Cells [1]
  EC50: > 350 µM (not active)
Cells [2]
  EC50: 9.41 µM (active)

## COc1cc(SC)ccc1C(=O)Nc1ccc(Cl)cn1
[13]
  EC50: 4.03 µM (inconclusive)
[14]
  EC50: 1.33 µM (active)
[15]
  EC50: 0.497 µM (active)
Protein skinhead-1
  IC50: > 100 µM (inactive)
[16]
  AC50: 1.59 µM (active)
[17]
  AC50: 1.45 µM (active)
